{"source": "patent US4231928A", "about": "“Antibacterial agents” (priority 1979, dated 1980)", "origin": "cited, not measured here", "tested_on": "Pseudomonas aeruginosa", "conditions": "prior art penicillins; cited from earlier work"}
{"smiles": "CC1(C)S[C@@H]2[C@H](NC(=O)[C@H](C(=O)O)c3ccsc3)C(=O)N2[C@H]1C(=O)O", "note": "[ticarcillin]", "values": [{"measurement": "potency against Pseudomonas aeruginosa (in words)", "value": "only a relatively low potency"}]}
